In paper PMC4919066 (PLoS Pathogens, 2016):
Counter-ions that a name gives are not always drawn.

Assays:
HCMV Towne = assay: HCMV plaque reduction assay in HFFs; assay type: cell-based, Human Cytomegalovirus
Experimental: Human Foreskin Fibroblasts (HFFs) passage 12–16 (ATCC, CRL-2088) and mouse embryonic fibroblasts (MEFs) passage 9–14 (ATCC, CRL-1658) were grown in Dulbecco's Modified Eagle Medium (DMEM) containing 10% fetal bovine serum (FBS) (Gibco, Carlsbad, CA) in a 5% CO2 incubator at 37°C. Infection with HCMV or HSV was performed in HFFs, and infection with mouse CMV was performed in MEFs. For HCMV, cells were seeded in either a 96-well plate or 100 mm culture plates (Corning Costar, Sigma Aldrich) at 0.5 or 2 million cells /plate. Following 90 minute adsorption, media was removed and cells were washed with PBS. Media containing 4% FBS and compounds were added to each well. Infected treated HFFs were collected at 72 hpi and lysates were assayed for luciferase activity using a luciferase assay kit (Promega, Madison, WI) on GloMax-Multi+ Detection System (Promega). In second cycle assays, supernatants were collected from all conditions of the first cycle at 96 hpi and used for infection of fresh HFFs in 96-well plates. Luciferase activity was measured 72 h following second cycle infection. For HSV1-KOS/Dlux/oriS, a luciferase assay was performed at 24 hpi. Plaque assays were performed with clinical isolates of HSV2 and HCMV Towne (ATCC VR-977). HFFs were seeded at […] in 12-well plates and infected 24 h later with HSV2 at 200 PFU/well. For HCMV or MCMV, HFFs or MEFs were seeded at 0.5 or 2 million cells /plate in a 12-well plate and infected 24 hours later at 100 PFU/well. Following virus adsorption (60 min and 90 min for HSV and HCMV, respectively), virus was aspirated, and DMEM containing 4% fetal bovine serum (FBS) with (for HSV) or without (for HCMV/MCMV) 0.5% carboxymethyl-cellulose, were added with the compounds at indicated concentrations into triplicate wells. After incubation at 37°C for 10 days (for HCMV), 3 days for MCMV or 2 days (for HSV), the overlay was removed and plaques were counted after crystal violet staining.

p21 = assay: qRT-PCR for p21; assay type: cell-based, human; conditions: emetine 75 nM, infected high-density cells
Experimental: Total RNA was isolated from cultured cells using RNeasy Mini kit (Qiagen). RevertAid first strand cDNA synthesis kit (Fermentas life sciences, Cromwell Park, MD) was used to synthesize first strand cDNA from total RNA using oligo-dT primers. Negative RT reactions were included to ensure the specificity of qRT-PCR reactions. Synthesis of first strand cDNA from mRNA template was carried out at 42°C for 1 h. Quantitative RT-PCR was performed in triplicates using specific primers for p21 (F: 5’ […] 3’; R: 5’ […] 3’) and SYBR green (Fermentas life science) with two-step cycling protocol (95°C for 15 s, 60°C for 1 min). GAPDH (F: 5’ […] 3’; R: 5’ […] 3’) was used as the internal control.

MDM2-IE2 = assay: Co-immunoprecipitation MDM2-IE2 in transfected HEK293 cells; assay type: cell-based; conditions: IE1/2 transfection, emetine 75 nM or GCV 5 μM for 4 h
Experimental: HEK-293 cells seeded into 10 cm petri dishes were transfected with HCMV plasmid encoding IE1 and IE2 (pRL45), using Lipofectamine 2000 in serum free medium. After 6 h, 10% FBS containing media was added along with 10 μM of MG132. […] Cells were then harvested to prepare lysates for IP.
Non-infected, infected or emetine-treated HFFs were treated with MG132 (10 μM) for 12h. Cells were harvested after 24 hpi and lysed with IP buffer containing 150 mM NaCl, 50mM Tris pH 7.5, 2 mM EDTA, 0.5% TritonX-100 and 0.5% NP-40-40. 1 mg of lysate was precleared with bead slurry for 30 min. The precleared lysates were incubated with anti-MDM2 (2 μg) antibody overnight. The antibody complexes were isolated using protein A/G beads (Santa Cruz), washed three times with 50% IP buffer. The immunoprecipitate-protein A/G beads were boiled in SDS sample buffer, and the supernatant was analyzed on SDS-PAGE gels after immunoblotting as described previously. 1% of the cell lysate used for IP was loaded on gels as ‘Input’. Confirmatory reverse IPs were performed as described in each experiment. Isotype control antibodies included: rabbit IgG polyclonal, mouse IgG2a kappa and mouse IgG2b kappa monoclonal (Abcam). Mouse monoclonal RPS19 antibody (Abcam) served as an additional negative control for the IPs. Densitometry analysis was performed to determine relative ratio of immunoprecipitated protein to its input level.

CC[C@H]1CN2CCc3cc(OC)c(OC)cc3[C@@H]2C[C@@H]1C[C@H]1NCCc2cc(OC)c(OC)cc21 [emetine, emetine dihydrochloride hydrate]
EC50 (HCMV Towne; Human betaherpesvirus 5, read-out: Mean EC50 ± SD): 0.068 µM
reduction in the number and size of plaques (HCMV Towne; emetine 75 nM, 2 million cells/plate as compared to 0.5 million cells/plate): 30 fold
increase in p21 mRNA (p21; 24 hpi): 5.4 fold
increase in p21 mRNA (p21; 72 hpi): 6.7 fold
interaction between MDM2 and IE2 (MDM2-IE2): significantly decreased
